Among the test systems are SK-MEL-28 melanoma; A498 renal; HOP-92 NSCLC; OVCAR-3 ovarian; ACHN renal; NCI-H522 lung; MOLT-4 leukemia; NCI/ADR-RES ovarian; IGROV1 ovarian; OVCAR-5 ovarian.
Holding throughout (experiment): DTP human tumour cell line panel, 48 h

In PubChem BioAssay (NCI) one finds GI50 and TGI data, which are given here for eight compounds.

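Briefly, cells in 96-well plates were exposed to five compound concentrations for 48 h, and endpoints were estimated by linear interpolation. The concentration for 50% growth inhibition is given as GI50. TGI denotes the concentration required for complete inhibition of growth.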

`C/C(=N\Nc1ccc(Cl)cn1)c1ccc2ccccc2n1`: the GI50 was 3.6 µM in the experiment with SK-MEL-28 melanoma; 33.4 µM with A498 renal; 2.25 µM in the experiment with HOP-92 NSCLC; 0.545 µM in the experiment on OVCAR-3 ovarian; 2.49 µM in the experiment on ACHN renal; 3.24 µM with NCI-H522 lung. Further, the GI50 in the experiment with MOLT-4 leukemia is 1.26 µM; in the experiment on NCI/ADR-RES ovarian it was 2.16 µM; in the experiment with IGROV1 ovarian, 2.88 µM; in the experiment with OVCAR-5 ovarian, 5.44 µM. In addition, the TGI in the experiment on SK-MEL-28 melanoma, in the experiment on A498 renal, with HOP-92 NSCLC, with OVCAR-3 ovarian, in the experiment with ACHN renal and in the experiment with NCI-H522 lung was above 100 µM in each case. Further, the TGI in the experiment with MOLT-4 leukemia, with NCI/ADR-RES ovarian, with IGROV1 ovarian and with OVCAR-5 ovarian was above 100 µM in each case.

Regarding `Cc1cc2ncnn2cc1Nc1ncc2c(n1)n(C1CCOCC1)c(=O)n2C`, the GI50 was 5.71 µM with SK-MEL-28 melanoma; 0.319 µM in the experiment on A498 renal; 2.01 µM with HOP-92 NSCLC; 6.22 µM in the experiment on OVCAR-3 ovarian; 9.97 µM with ACHN renal; 3.74 µM with NCI-H522 lung. Moreover, the GI50 with MOLT-4 leukemia is 6.09 µM; in the experiment with NCI/ADR-RES ovarian it was 19.9 µM; in the experiment on IGROV1 ovarian, 3.19 µM; with OVCAR-5 ovarian, 5.81 µM. Besides, the TGI is 64.1 µM in the experiment with SK-MEL-28 melanoma; 2.22 µM in the experiment with A498 renal; 18.8 µM in the experiment on HOP-92 NSCLC; 72 µM in the experiment with OVCAR-3 ovarian; above 100 µM with ACHN renal; above 100 µM in the experiment on NCI-H522 lung. The total growth inhibition concentration (TGI) was 52 µM in the experiment with MOLT-4 leukemia, above 100 µM in the experiment with NCI/ADR-RES ovarian, 25.5 µM in the experiment with IGROV1 ovarian and above 100 µM in the experiment with OVCAR-5 ovarian.

`O=c1cc(NCC(O)CN2CCCC2)n(Cc2ccccc2)c(=O)n1Cc1ccccc1` (configuration not stated): the GI50 with SK-MEL-28 melanoma was 16.7 µM; in the experiment on A498 renal, above 100 µM; in the experiment on HOP-92 NSCLC, 14.9 µM; with OVCAR-3 ovarian, above 100 µM; in the experiment with ACHN renal, above 100 µM; in the experiment on NCI-H522 lung it was 79.3 µM. Also, the GI50 in the experiment on MOLT-4 leukemia is 24.3 µM; in the experiment on NCI/ADR-RES ovarian it was above 100 µM; with IGROV1 ovarian it was 26.6 µM; in the experiment with OVCAR-5 ovarian it was above 100 µM. Moreover, the TGI in the experiment with SK-MEL-28 melanoma is 34.6 µM; in the experiment on A498 renal, above 100 µM; in the experiment with HOP-92 NSCLC, above 100 µM; in the experiment on OVCAR-3 ovarian it was above 100 µM; in the experiment with ACHN renal, above 100 µM; in the experiment with NCI-H522 lung, above 100 µM. Moreover, the TGI with MOLT-4 leukemia was 72.8 µM; in the experiment on NCI/ADR-RES ovarian, above 100 µM; with IGROV1 ovarian, 95.4 µM; with OVCAR-5 ovarian it was above 100 µM.

Consider `CCOC(=O)C1CCN(S(=O)(=O)/N=C2/NC(=O)NC2=C(Cl)Cl)CC1`, for which the GI50 is 1.8 µM with SK-MEL-28 melanoma; 2.65 µM in the experiment on A498 renal; 1.62 µM in the experiment with HOP-92 NSCLC; 1.77 µM in the experiment on OVCAR-3 ovarian; 1.83 µM in the experiment with ACHN renal; 2.22 µM in the experiment on NCI-H522 lung. Also, the GI50 with MOLT-4 leukemia is 1.88 µM; in the experiment on NCI/ADR-RES ovarian, 4.36 µM; in the experiment with IGROV1 ovarian, 1.91 µM; in the experiment with OVCAR-5 ovarian, 3.6 µM. Moreover, the TGI was 3.51 µM in the experiment with SK-MEL-28 melanoma; 12.1 µM with A498 renal; 3.29 µM in the experiment on HOP-92 NSCLC; 3.29 µM with OVCAR-3 ovarian; 3.32 µM with ACHN renal; 4.28 µM in the experiment on NCI-H522 lung. Besides, the TGI in the experiment on MOLT-4 leukemia amounted to 4.46 µM; in the experiment with NCI/ADR-RES ovarian it was 41.4 µM; with IGROV1 ovarian, 3.93 µM; in the experiment on OVCAR-5 ovarian, 14.7 µM.

As to `COc1ccc(C(=O)c2cc(C)c(OC)c(C)c2)cc1OC(=O)CCl`, the GI50 was 0.0396 µM in the experiment with SK-MEL-28 melanoma; 1.45 µM in the experiment on A498 renal; 12.4 µM with HOP-92 NSCLC; below 0.01 µM in the experiment with OVCAR-3 ovarian; below 0.01 µM in the experiment on ACHN renal; below 0.01 µM in the experiment with NCI-H522 lung. Also, the GI50 is below 0.0158 µM in the experiment with MOLT-4 leukemia, below 0.01 µM in the experiment with NCI/ADR-RES ovarian, 0.0352 µM in the experiment with IGROV1 ovarian and 1.71 µM in the experiment on OVCAR-5 ovarian. Besides, the TGI in the experiment on SK-MEL-28 melanoma is above 100 µM; in the experiment with A498 renal, 9.51 µM; in the experiment on HOP-92 NSCLC, above 96.1 µM; in the experiment on OVCAR-3 ovarian, 1.08 µM; in the experiment on ACHN renal it was 77.5 µM; in the experiment on NCI-H522 lung, below 0.01 µM. Also, the TGI was above 100 µM with MOLT-4 leukemia, above 63.5 µM in the experiment on NCI/ADR-RES ovarian, above 100 µM in the experiment with IGROV1 ovarian and above 100 µM in the experiment with OVCAR-5 ovarian.

Turning to `NNC(=S)N/N=C(/C(=O)Nc1ccc(Cl)c(Cl)c1)C(C1OC(=O)c2ccccc21)[N+](=O)[O-]` (configuration not stated), the TGI with SK-MEL-28 melanoma, with A498 renal, in the experiment on HOP-92 NSCLC, with OVCAR-3 ovarian, in the experiment with ACHN renal and in the experiment with NCI-H522 lung was above 100 µM each time. Moreover, the TGI with MOLT-4 leukemia, in the experiment on NCI/ADR-RES ovarian, in the experiment with IGROV1 ovarian and in the experiment with OVCAR-5 ovarian was above 100 µM in each case.

Consider `Cc1cc2nc(C=C(C(F)(F)F)C(F)(F)F)oc2cc1C`, for which the TGI in the experiment on SK-MEL-28 melanoma is above 10 µM; in the experiment on A498 renal, above 10 µM; with HOP-92 NSCLC it was above 10 µM; in the experiment on OVCAR-3 ovarian, 4.35 µM; in the experiment on ACHN renal it was above 10 µM; with NCI-H522 lung, 6.35 µM. In addition, the TGI in the experiment on MOLT-4 leukemia turned out to be 5.66 µM; with NCI/ADR-RES ovarian, 5.93 µM; in the experiment on IGROV1 ovarian, 8.08 µM; in the experiment on OVCAR-5 ovarian, 7.03 µM.

With `COc1ccc(C(=O)c2cc(C)c(OC)c(C)c2)c(OC)c1O`, the GI50 with SK-MEL-28 melanoma is 1.42 µM; in the experiment with A498 renal, 1.84 µM; in the experiment on HOP-92 NSCLC it was 0.247 µM; in the experiment with OVCAR-3 ovarian, 0.0374 µM; in the experiment on ACHN renal, 0.0566 µM; in the experiment on NCI-H522 lung it was below 0.0189 µM. The GI50 in the experiment with MOLT-4 leukemia was 0.0448 µM; in the experiment with NCI/ADR-RES ovarian it was 0.0257 µM; in the experiment on IGROV1 ovarian, 0.672 µM; in the experiment on OVCAR-5 ovarian, 4.9 µM. Besides, the TGI in the experiment on SK-MEL-28 melanoma is above 100 µM; in the experiment on A498 renal it was 6.03 µM; in the experiment with HOP-92 NSCLC it was above 100 µM; with ACHN renal, above 100 µM; with MOLT-4 leukemia, above 100 µM; with IGROV1 ovarian, above 100 µM. The same compound came in with a TGI with OVCAR-5 ovarian above 100 µM.
